{"source": "patent US9102636B2", "about": "“Analgesic compounds, compositions, and uses thereof” (Galleon Pharmaceuticals, Inc., priority 2010, dated 2015)", "key": {"[1]": {"system": "fentanyl analgesia (Hargreaves)", "experiment": "Preservation of fentanyl analgesia in Hargreaves thermal plantar model", "assay_type": "in vivo", "conditions": "rat; compound IV 15 min before fentanyl 25 μg/kg; FIG. 2"}, "PC12 cells": {"system": "PC12 cells", "experiment": "Inhibition of peroxynitrite (SIN-1) mediated cytotoxicity, ATPlite", "assay_type": "cell-based", "conditions": "Rattus norvegicus, PC-12, SIN-1 overnight, average of two plates", "excerpt": "ATPlite is an Adenosine TriPhosphate monitoring system based on firefly luciferase. ATP monitoring was used as a measure of PC12 cell viability, as it is present in all metabolically active cells and its concentration very rapidly declines as cells undergo necrosis and apoptosis. ATPlite is based upon the production of light given off during the reaction of ATP & D-Luciferin in the presence of Luciferase. The emitted light is proportional to the ATP concentration. Compounds of the invention were assessed for their ability to inhibit SIN-1 induced cell toxicity. Inhibitory concentrations, IC50 values, were calculated by testing compounds of the invention at various concentrations and averaging the IC50 of two plates.\nAll cell work was carried out under the cell culture hood in a sterile environment. […] The cells were counted in the 4 large corner quadrants of the hemacytometer under the inverted microscope at 10× and the average of the 4 quadrants was calculated. Blue cells were not counted as these cells represented non-viable cells. The number of cells present in 1 mL of media was determined using the following equation: cells/mL=(# cells counted/# squares counted)×10^4×dilution factor. […]\nOn Day 3, 10.25 ml of ATPlite buffer was added to 1 vial of lyophilized substrate solution (ATPlite 1 step luminescence ATP detection Assay system (Perkin Elmer, #6016731)). […]"}, "[2]": {"system": "spinal nerve ligation induced tactile allodynia", "experiment": "Spinal nerve ligation (SNL, Chung model) induced tactile allodynia (von Frey filaments)", "assay_type": "in vivo, rat", "conditions": "for Paw threshold / Paw withdrawal threshold: individual animals; for Paw withdrawal threshold: non-fasted"}, "[3]": {"system": "hyperalgesia following incisional surgery", "experiment": "Established incisional hyperalgesia, dosing 24 hours after surgery", "assay_type": "in vivo", "conditions": "rat; given 24 hours after surgical incision; FIG. 10"}, "[4]": {"system": "hyperalgesia caused by SIN-1", "experiment": "Hyperalgesia caused by SIN-1", "assay_type": "in vivo", "conditions": "rat; IV 15 minutes before first SIN-1 (1 mg/kg); FIG. 11", "procedure": "Vehicle or compound 2 was given IV 15 minutes before the first administration of SIN-1 (1 mg/kg)."}, "[5]": {"system": "Carrageenan-induced thermal hyperalgesia", "experiment": "Carrageenan-induced thermal hyperalgesia (Hargreaves)", "assay_type": "in vivo, rat", "conditions": "for Paw withdrawal latency: cut-off 40 s, individual animals"}}, "note": "“And” between values parts separate entries of the source, which are not always exact repeats. Equal entries are not always repeated.", "data": [{"smiles": "CC1(C)SC(Nc2ccccc2O)=N[C@@H]1C(=O)O", "note": "[Compound 2, (R)-2-(2-hydroxyphenylamino)-thiazoline-5,5-dimethyl-4-carboxylic acid]", "values": [{"measurement": "preservation of fentanyl analgesia, Hargreaves thermal hyperalgesia model", "setting": "[1]", "value": "dose-dependently preserves fentanyl analgesia"}, {"measurement": "IC50", "setting": "PC12 cells", "value": 3.7, "unit": "µM"}, {"measurement": "Paw threshold", "setting": "[2]; FIG. 25, compound 2 30 mg/kg p.o. once on the day of surgery, 1 wk, 30 mg/kg", "value": "1.85 g and 1.18 g and 2.81 g and 4.47 g and 6.4 g and 2.2 g and 15 g and 4.25 g"}, {"measurement": "Paw threshold", "setting": "[2]; FIG. 25, compound 2 30 mg/kg p.o. once on the day of surgery, 2 wks, 30 mg/kg", "value": "1.65 g and 2.81 g and 2 g (2×) and 3.73 g and 0.99 g and 5.56 g and 5.04 g"}, {"measurement": "Paw threshold", "setting": "[2]; FIG. 25, compound 2 30 mg/kg p.o. once on the day of surgery, Pre-Sx", "value": 15, "unit": "g"}, {"measurement": "Paw threshold", "setting": "[2]; FIG. 26, compound 2 30 mg/kg p.o. QD on days 1-5 post-surgery, 1 wk, 30 mg/kg", "value": "15 g (4×) and 11.41 g and 3.13 g and 1.18 g and 6.66 g"}, {"measurement": "Paw threshold", "setting": "[2]; FIG. 26, compound 2 30 mg/kg p.o. QD on days 1-5 post-surgery, 2 wks, 30 mg/kg", "value": "13.96 g (2×) and 4.25 g and 5.37 g and 11.69 g and 2.8 g and 8.44 g and 7.94 g"}, {"measurement": "Paw threshold", "setting": "[2]; FIG. 26, compound 2 30 mg/kg p.o. QD on days 1-5 post-surgery, 3 wks, 30 mg/kg", "value": "7.53 g and 6.64 g and 4.98 g and 2.2 g and 4.4 g and 2.38 g and 10.31 g and 15 g"}, {"measurement": "Paw threshold", "setting": "[2]; FIG. 26, compound 2 30 mg/kg p.o. QD on days 1-5 post-surgery, Pre-Sx, 30 mg/kg", "value": "15 g (7×) and 11.69 g"}, {"measurement": "Paw withdrawal threshold", "setting": "[2]; compound 2 10 mg/kg p.o., 1 hr (D1), 10 mg/kg", "value": "1.56 g and 4.98 g and 4.25 g (2×) and 15 g and 3.13 g and 2.81 g and 4.4 g"}, {"measurement": "Paw withdrawal threshold", "setting": "[2]; compound 2 10 mg/kg p.o., 1 hr (D2), 10 mg/kg", "value": "1.31 g and 1.85 g (3×) and 2.38 g and 2.64 g and 1.65 g and 1.4 g"}, {"measurement": "Paw withdrawal threshold", "setting": "[2]; compound 2 10 mg/kg p.o., 1 hr (D3), 10 mg/kg", "value": "0.44 g and 3.67 g and 1.85 g and 7.94 g and 3.33 g and 2 g and 2.81 g and 4.4 g"}, {"measurement": "Paw withdrawal threshold", "setting": "[2]; compound 2 10 mg/kg p.o., 3 hrs (D1), 10 mg/kg", "value": "2 g and 7.94 g and 1.4 g and 15 g and 2.81 g and 2.64 g and 1.85 g and 3.57 g"}, {"measurement": "Paw withdrawal threshold", "setting": "[2]; compound 2 10 mg/kg p.o., 3 hrs (D2), 10 mg/kg", "value": "0.4 g and 1.56 g (2×) and 11.69 g and 2.81 g and 2.37 g and 2 g and 3.71 g"}, {"measurement": "Paw withdrawal threshold", "setting": "[2]; compound 2 10 mg/kg p.o., 3 hrs (D3), 10 mg/kg", "value": "0.99 g and 2.37 g and 1.56 g and 2.38 g and 2.81 g (2×) and 0.65 g and 3.33 g"}, {"measurement": "Paw withdrawal threshold", "setting": "[2]; compound 2 10 mg/kg p.o., Pre-Drug, 10 mg/kg", "value": "2.2 g and 3.13 g (2×) and 4.25 g and 3.58 g and 3.73 g and 4.4 g and 2.64 g"}, {"measurement": "Paw withdrawal threshold", "setting": "[2]; compound 2 10 mg/kg p.o., Pre-Sx, 10 mg/kg", "value": "11.69 g and 15 g (7×)"}, {"measurement": "Paw withdrawal threshold", "setting": "[2]; compound 2 50 mg/kg p.o., 1 hr (D1), 50 mg/kg", "value": "2.81 g (2×) and 6.64 g and 5.56 g (2×) and 3.67 g and 4.23 g and 4.98 g"}, {"measurement": "Paw withdrawal threshold", "setting": "[2]; compound 2 50 mg/kg p.o., 1 hr (D2), 50 mg/kg", "value": "1.19 g and 2.81 g and 3.12 g and 7.94 g"}, {"measurement": "Paw withdrawal threshold", "setting": "[2]; compound 2 50 mg/kg p.o., 3 hrs (D1), 50 mg/kg", "value": "1.18 g and 3.13 g (2×) and 3.33 g and 6.66 g (2×) and 6.64 g and 4.7 g"}, {"measurement": "Paw withdrawal threshold", "setting": "[2]; compound 2 50 mg/kg p.o., Pre-Drug, 50 mg/kg", "value": "2.81 g (2×) and 3.33 g and 3.73 g and 2.2 g and 5.04 g and 4.25 g and 3.58 g"}, {"measurement": "Paw withdrawal threshold", "setting": "[2]; compound 2 50 mg/kg p.o., Pre-Sx", "value": 15, "unit": "g"}, {"measurement": "development of SNL tactile allodynia, single administration", "setting": "[2]; rat, 30 mg/kg p.o. immediately following surgery, assessed 1 and 2 weeks later, FIG. 25", "value": "a significant difference between treated animals and vehicle controls was not noted"}, {"measurement": "development of SNL tactile allodynia, repeated administration", "setting": "[2]; rat, 30 mg/kg p.o. once a day for 5 days starting on day of surgery, 1, 2 and 3 weeks post surgery, FIG. 26", "value": "significant reduction in tactile allodynia"}, {"measurement": "reversal of SNL tactile allodynia, fasted animals, subsequent administrations", "setting": "[2]; rat, 50 mg/kg p.o., 48 hrs later, FIG. 24", "value": "failed to produce a statistically significant effect"}, {"measurement": "reversal of SNL tactile allodynia, non-fasted animals", "setting": "[2]; rat, 10 and 50 mg/kg p.o., any time point after any of three administrations, FIG. 23", "value": "did not produce a statistically significant difference from vehicle treated animals"}, {"measurement": "reversal of hyperalgesia following incisional surgery", "setting": "[3]", "value": "reverses hyperalgesia following incisional surgery"}, {"measurement": "hyperalgesia caused by SIN-1", "setting": "[4]", "value": "inhibits hyperalgesia caused by SIN-1"}, {"measurement": "Paw withdrawal latency", "setting": "[5]; compound 2 10 mg/kg p.o. preemptive (15 minutes prior to carrageenan), baseline prior to carrageenan (first line), 10 mg/kg", "value": "20.94 s and 40 s and 25.09 s and 26.96 s and 13.66 s and 23.25 s"}, {"measurement": "Paw withdrawal latency", "setting": "[5]; compound 2 10 mg/kg p.o. preemptive, 4 hours post carrageenan (second line), 10 mg/kg", "value": "8.1 s and 5.07 s and 20.71 s and 12.18 s and 11.94 s and 9.38 s"}, {"measurement": "Paw withdrawal latency", "setting": "[5]; compound 2 30 mg/kg p.o. preemptive, 4 hours post carrageenan (second line), 30 mg/kg", "value": "11.57 s and 16.63 s and 6.81 s and 11 s and 32.38 s and 11.6 s"}, {"measurement": "Paw withdrawal latency", "setting": "[5]; compound 2 30 mg/kg p.o. preemptive, baseline prior to carrageenan (first line), 30 mg/kg", "value": "27.75 s and 15.78 s and 35.57 s and 23.26 s and 18.37 s and 25.78 s"}, {"measurement": "carrageenan-induced thermal hyperalgesia, preemptive (finding in words)", "setting": "[5]; rat, 10 and 30 mg/kg p.o. 15 minutes prior to carrageenan", "value": "did not significantly prevent"}]}]}
